The results in this text go back to article PMC8432876, “Acetylcholine esterase inhibitory activity of green synthesized nanosilver by naphthopyrones isolated from marine-derived Aspergillus niger” (PLoS ONE, 2021).

This test addresses acetylcholine esterase AChE (Homo sapiens, UniProt P22303). In words: biochemical. It counts as biochemical. Conditions: Ellman's method; for IC50: AChEI activity. As to the method:
Acetylcholine esterase inhibitory activity of isolated compounds and their synthesized silver nanoparticles were assessed using Ellman’s method as previously prescribed.
Acetylcholine esterase inhibitory (AChEI) activity was assessed by using Ellman’s method.

Bounds are passed on as bounds.

Chain of acetylcholine esterase AChE (P22303 32-614): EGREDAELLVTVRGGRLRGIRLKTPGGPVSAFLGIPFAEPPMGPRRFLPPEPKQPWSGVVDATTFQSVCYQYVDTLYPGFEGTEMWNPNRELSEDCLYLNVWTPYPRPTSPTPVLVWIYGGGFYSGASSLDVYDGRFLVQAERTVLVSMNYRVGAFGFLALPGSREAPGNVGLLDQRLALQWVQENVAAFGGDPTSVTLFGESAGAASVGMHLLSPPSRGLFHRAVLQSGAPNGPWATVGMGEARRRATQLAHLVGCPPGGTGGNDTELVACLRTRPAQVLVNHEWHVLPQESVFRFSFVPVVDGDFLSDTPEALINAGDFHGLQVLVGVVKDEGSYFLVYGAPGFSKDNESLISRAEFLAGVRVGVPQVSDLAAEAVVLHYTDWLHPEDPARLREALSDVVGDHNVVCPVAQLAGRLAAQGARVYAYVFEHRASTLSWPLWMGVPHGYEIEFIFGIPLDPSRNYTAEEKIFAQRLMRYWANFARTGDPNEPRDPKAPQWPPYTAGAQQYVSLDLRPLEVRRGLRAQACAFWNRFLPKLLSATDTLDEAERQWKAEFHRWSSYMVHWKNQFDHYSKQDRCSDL

Consider `NC(=O)c1c[nH]c(Cc2ccccc2)cc1=O` [Asperginin A (7), Aspernigrin A], for which half-maximal inhibition (IC50) required 20.2 ± 3.03 µM.

In turn, `COc1cc(OC)c2c(O)c3c(=O)cc(C)oc3c(-c3c(OC)cc4cc5oc(C)cc(=O)c5c(O)c4c3OC)c2c1` [Aurasperone A (3), Aurasperone A] registered an IC50 of 4.9 ± 2.16 µM.

As to `COc1cc(OC)c2c(c1)cc(O)c1c(=O)cc(C)oc12` [Flavasperone (1), Flavasperone], the half-inhibitory concentration (IC50) is over 25 µM and the “AChE inhibitory activity (in words)” value is given as “didn’t show any inhibitory activity”.

In turn, `COc1cc(OC)c2c(O)c3c(=O)cc(C)oc3c(-c3c(OC)cc4cc(O)c5c(=O)cc(C)oc5c4c3OC)c2c1` [Fonsecinone A (4), Fonsecinone A] registered an IC50 of 7.52 ± 2.16 µM.

In the case of `COc1cc(OC)c2c(O)c3c(=O)cc(C)oc3cc2c1` [Rubrofusarin B (2), Rubrofusarin B], the IC50 turned out to be 13.9 ± 2.16 µM and the “AChE inhibitory activity (in words)” value is on record as “moderate inhibitory activity”.
